“And” between values parts separate entries of the source, which are not always exact repeats. Equal entries are not always repeated. Where two headings read alike, the source gives them in different places.
Columns and labels:
Type in all cases: cell-based, human
[1] = system: protein synthesis in HL-60 cells; assay: Inhibition of [2,3,4,5-3H]L-Leu incorporation into protein of HL-60 cells; settings: for inhibition at 30 µg/mL: Homo sapiens
Description: (§1) For the precursor incorporation studies, each compound (in 0.3% dimethylsulfoxide) was preincubated with HL-60 cells (a human promyelocytic leukemic cell line) 2.2×10^6 /ml, for 15 min prior to the addition of the labeled precursor (obtained from ICN Radiochemicals, Irvine, Calif.) and then incubated for 30 min. The precursors used for incorporation into DNA, RNA and protein were [^3 H-methyl]dThd (1 μCi, 0.15 nmole/ml), [5-^3 H]Cyd (5 μCi, 0.23 nmol/ml), and [2,3,4,5-^3 H]L-Leu (0.5 μCi, 0.004 nmol/ml), respectively. Incorporation of radioactivity in the absence of a plant compound and in the presence of dimethylsulfoxide was used as a control. The control values for incorporation into DNA, RNA and protein were 8,500, 5,600 and 1,700 cpm/10^6 cells, respectively. The incubation conditions and the procedures for isolating DNA, RNA and protein fractions have been previously described (Chou, T. -C., et al., Cancer Res., 43:3074-3079 (1983)) .
(§2) HL-60 cells were incubated with [5-^3 H]Cyd or [2,3,4,5-^3 H]L-Leu in the presence and absence of alkaloids (0.03 mg/ml) in order to find the effects of the alkaloid on the incorporation of labeled precursors into RNA or protein. […] Over 90% of RNA and protein biosynthesis were inhibited by compounds 11, 16, 17, 22, 28, 29and 30 (Table 1). […] In most cases, the amount required to inhibit precursor incorporation into DNA was less than that to inhibit precursor incorporation into RNA or protein (i.e. DNA synthesis is inhibited most potently).

[2] = system: DNA synthesis in HL-60 cells; assay: Inhibition of [3H-methyl]dThd incorporation into DNA of HL-60 cells; settings: for inhibition at 30 µg/mL: Homo sapiens, HL-60, at 0.03 mg/mL, read-out: % Inhibition of Precursor Incorporation, DNA; for inhibition of DNA synthesis, in words: HL-60, 0.03 mg/ml
Description: as §1, with “control.” for “control. The control values for incorporation into DNA, RNA and protein were 8,500, 5,600 and 1,700 cpm/10^6 cells, respectively. The incubation conditions and the procedures for isolating DNA, RNA and protein fractions have been previously described (Chou, T. -C., et al., Cancer Res., 43:3074-3079 (1983)) .”
Human promyelocytic cells (HL-60) were incubated with [^3 H-methyl]dTHDin the presence and absence of a plant alkaloid.

[3] = system: RNA synthesis in HL-60 cells; assay: Inhibition of [5-3H]Cyd incorporation into RNA of HL-60 cells; settings: for inhibition at 30 µg/mL: Homo sapiens, HL-60, 0.5 h
Description: as §1, §2

HL-60 cells = assay: HL-60 cell growth inhibition, 72 h; settings: HL-60, 72 h; for IC50: read-out: Cell Growth Inhibition, IC50
Description: For growth inhibition studies, HL-60 cells (1.5×10^5 /ml) were grown in RPMI 1640 media (GIBCO, Grand Island, N.Y.) at 37° C. in humidified 5% CO2 for 72 h. Viable cells were determined using trypan blue exclusion and counted in a hemocytometer. The fractional inhibition for each compound concentration (0.0025-0.05 mg/ml in 0.1% dimethylsulfoxide) was analyzed with the median-effect plot using a computer program (Chou, T. -C and P. Talalay, Adv. Enzyme Regul., 22:27-55 (1984); Chou, J. and T. -C. thou, Dose-Effect analysis with microcomputers: Quantitation of ED50, LD50, synergism, antagonism, low-dose risk, receptor ligand binding and enzyme kinetics. A computer software disk for Apple II series or IBM-PC and manual. Elsevier Science Publishers, Elsevier-BioSoft, Cambridge, United Kingdom (1986)). The median-effect concentration (IC50) was determined automatically for three to five dose-effect levels. Cell growth in the absence of plant compound and in the presence of dimethylsulfoxide was used as a control. Dimethylsulfoxide alone inhibited cell growth 3.9%±1.5% during the 72 h incubation period. Those data with negative values represent activations.

[4] = HL-60, at 0.03 mg/mL, read-out: % Inhibition of Precursor Incorporation, Protein
[5] = at 0.03 mg/mL, read-out: % Inhibition of Precursor Incorporation, RNA

SMILES | inhibition at 30 µg/mL [1, 4] [%] | inhibition at 30 µg/mL [2] [%] | inhibition at 30 µg/mL [3, 5] [%] | cell growth inhibition, in words (HL-60 cells) | IC50 (HL-60 cells; Homo sapiens) | inhibition of DNA synthesis, in words [2] | % Inhibition of Precursor Incorporation, Protein ([1]; at 0.03 mg/mL) [%] | % Inhibition of Precursor Incorporation, DNA ([2]; at 0.03 mg/mL) [%] | % Inhibition of Precursor Incorporation, RNA ([3]; at 0.03 mg/mL) [%] | Cell Growth Inhibition, IC50 (HL-60 cells) [µg/mL] | IC50 (HL-60 cells) [µM] | inhibition at 30 µg/mL ([1]; HL-60, read-out: % Inhibition of Precursor Incorporation, Protein, at 0.03 mg/mL) [%] | inhibition at 30 µg/mL ([3]; read-out: % Inhibition of Precursor Incorporation, RNA, at 0.03 mg/mL) [%]
COc1cc(O)c2c(=O)c3ccc(O)c(OC)c3n(C)c2c1CC=C(C)C [Compound 29, Grandisinine] | 94.6 | 98.5 | 96.5 | significant activity against leukemic cells in vitro | 6 µg/mL and 16.9 µM |  |  |  |  |  |  |  | 
COc1ccc2c(=O)c3c(O)cc(OC)c(CC=C(C)C)c3n(C)c2c1OC [Compound 30, Balyumine-B] | 87 | 86.9 | 92.5 |  | 1.7 µg/mL and 4.4 µM |  |  |  |  |  |  |  | 
CC1(C)C=Cc2c(cc(O)c3c(=O)c4ccccc4[nH]c23)O1 [Compound 32, des-N-methyl-nor-acronycine] | 85.9 | 69.2 | 77.5 | only showed moderate cell growth inhibitory activity | 9.1 µg/mL and 31 µM | did not show good activity |  |  |  |  |  |  | 
COc1cc2c(c3[nH]c4ccccc4c(=O)c13)C=CC(C)(C)O2 [Compound 33, des-N-methyl acronycine] | 86.4 | 93.8 | 67.3 | significantly active | 5.4 µg/mL and 17.6 µM | markedly increased |  |  |  |  |  |  | 
Cn1c2ccccc2c(=O)c2c(O)cc3c(c21)C=CC(C)(C)O3 [Compound 35, Noracronycine] | 4.7 | 25.5 | 94 | only showed moderate cell growth inhibitory activity | > 40 µg/mL and > 130 µM |  |  |  |  |  |  |  | 
Cn1c2c(O)cccc2c(=O)c2c(O)cc3c(c21)CCC(C)(C)O3 [Compound 38, 1,2-Dihydro-11-hydroxy-nor acronycine] | 92.2 | 98.8 | 76.6 | only half as potent as their parent compounds | 5.5 µg/mL and 16.9 µM | same potency as their parent compounds |  |  |  |  |  |  | 
COc1cccc2c(=O)c3c(O)cc4c(c3n(C)c12)C=CC(C)(C)O4 [Compound 39, 11-methoxy-noracronycine] |  |  |  |  |  |  | 36.2 | 98.9 | 39.9 | 5.8 | 17.2 |  | 
CC(C)=CCc1c2c(c3[nH]c4c(O)cccc4c(=O)c3c1O)C=CC(C)(C)O2 [Compound 40, Atalaphyllinine] |  | 98.8 |  | comparable activity | 1.2 µg/mL and 3.2 µM | greater activity |  |  |  |  |  | 41.8 | 24.4
CC(C)=CCc1c2c(c3c(c1O)c(=O)c1ccccc1n3C)C=CC(C)(C)O2 [Compound 41, N-Methylseverifoline] | 13.2 | 21.3 | -17.9 | only showed moderate cell growth inhibitory activity | > 40 µg/mL and > 107 µM | no effect on the inhibitory activity |  |  |  |  |  |  | 
COc1c(O)ccc2c(=O)c3c(O)cc4c(c3n(C)c12)C=CC(C)(C)O4 [Compound 42, Citracridone-I] | 90.5 | 98.5 | 96.9 |  | 2.9 µg/mL and 8.2 µM |  |  |  |  |  |  |  | 
COc1c(O)ccc2c(=O)c3c(O)cc4c(c3n(C)c12)CCC(C)(C)O4 [Compound 43, 1,2-dihydrocitracridone-I] | 81.9 | 94.9 | 68 | only half as potent as their parent compounds | 6.4 µg/mL and 18 µM | same potency as their parent compounds |  |  |  |  |  |  | 

From patent publication US5340818A, “Methods and compositions for inhibiting tumor cell growth” (priority 1993, dated 1994)
